Measured values from US12274702B2, “Nasal compositions comprising alcaftadine” (ALKEM LABORATORIES LIMITED, priority 2021, dated 2025).

Assays:
[1] = Pharmacokinetics after intranasal administration in rabbits; format: in vivo, New Zealand white rabbits
Protocol: The pharmacokinetic profiles for Example 1A, 1B and 1C as well as an olapatdine nasal formulation were each determined on 6 male New Zealand white rabbits. The olopatadine nasal formulation (0.6% w/v) was prepared from Olopat Max® 0.7% w/v, where Olopat Max® was diluted to 0.6% w/v by using purified water.
(§1) The study was carried out on total 24 male New Zealand white rabbits, which were segregated into four groups (G1 to G4, 6 rabbits/group). Mild anaesthesia was induced in all rabbits by inhalation of 2% isoflurane. Three groups (G1-G3) of anaesthetized rabbits were intranasally administered 250 μL of alcaftadine once daily using the formulations of Examples 1A, 1B, and 1C. A comparator, 250 μL of olopatadine at a concentration of 0.6% w/v, was intranasally administered once-daily to a fourth group G4 of anaesthetized rabbits.
Sampling details for the test and reference formulations: Approximately 0.5 mL of blood sample from each rabbit was withdrawn via marginal car vein into pre-labelled Eppendorf tubes containing 10% EDTA as an anticoagulant. Blood samples were withdrawn at 0 min, 5 min, 10 min, 15 min, 30 min, 60 min, 120 min, 240 min, 480 min and 1440 min after administration of test and reference formulations.
(§2) Procedure for sample preparation: Collected blood samples were mixed gently and kept on crushed ice. Plasma samples were separated after centrifugation at 3500 rpm for 10 min at 4° C. Plasma separation was carried out within 30 min of sample collection and stored at −70±10° C. The animals were euthanized by intravenous administration of sodium thiopental injection overdose and nasal epithelium was collected. Half of the tissues of nasal epithelium were homogenized using phosphate buffered solution (20% homogenation) for quantification of alcaftadine and olopatidine. The remaining half of the tissues were stored in 10% neutral buffered formalin for detailed gross histopathological examination such as necrosis, inflammation or any changes during necropsy.
Rabbit plasma and nasal epithelial tissue concentrations of alcaftadine or olopatidine were determined using a fit-for-purpose LC-MS/MS method with LLOQ of 0.500 ng/ml or 0.250 ng/mL, respectively. The pharmacokinetic parameters were evaluated using Phoenix WinNonlin® Ent-Version 8.0 by non-compartmental analysis.

[2] = Nasal irritation and histopathology of nasal epithelium after intranasal administration in rabbits; format: in vivo, New Zealand white rabbits; conditions: doses 0.312 mg, 0.625 mg and 1.25 mg, all three groups
Protocol: as §1, §2

[3] = single intranasal administration, doses 0.625 to 1.25 mg, rabbits

SMILES	plasma concentration / systemic exposure ([1]; intranasal, rabbits)	onset of action versus intranasal olopatadine (from Tmax) ([1]; intranasal, rabbits, olopatadine 1.5 mg)	area under the curve (AUC0-24h) [1, 3]	peak plasma concentrations (Cmax) [1, 3]	time to achieve maximum concentration (Tmax) ([1]; single intranasal instillation, dose 0.625 mg (250 μL of Example 1B), rabbit plasma) [min]	signs or symptoms of inflammation or irritation [2]	Tmax ([1]; male, New Zealand white, inhaled or intranasal, single intranasal administration of 1.5 mg (250 μL, 0.6% w/v), rabbit plasma, read-out: time to reach peak concentration (Tmax)) [min]
CN1CCC(=C2c3ccccc3CCn3c(C=O)cnc32)CC1 [Alcaftadine, 6,11-dihydro-11-(1-methyl-4-piperidinylidene)-5H-imidazo[2,1-b][3]benzazepine-3-carboxaldehyde]	dose proportional with overall low systemic exposure	faster onset of action than intranasal olopatadine	dose proportional	dose proportional	4.8	no signs or symptoms of inflammation or irritation were observed	
CN(C)CC/C=C1/c2ccccc2COc2ccc(CC(=O)O)cc21 [olopatadine]							22.8
